For 26 compounds, TGI and GI50 results are on record in PubChem BioAssay (NCI).

“And” between values parts separate entries of the source, which are not always exact repeats. Identical values can stand only once.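 Dose response: 5 concentrations. Exposure: 48 h. Format: 96-well plates. Endpoint: linear interpolation; highest concentration if not reached. Abbreviation: GI50, concentration required for 50% inhibition of growth. The concentration for full growth arrest is given as TGI.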

Among the test systems are LXFL 529 NSCLC; DMS 114 small cell lung; M19-MEL melanoma; SNB-78 CNS; DMS 273 small cell lung; DLD-1 colon; XF 498 CNS; MDA-MB-435; DU-145 prostate; BT-549 breast; MDA-MB-231 breast.
What all share (test): NCI anticancer screen, dose series, 48 h

Regarding `O=C1C(=C2CCCC2)CCC1CN1CCCCC1` (stereo not drawn), the TGI in the assay on LXFL 529 NSCLC is 26.2 µM; with DMS 114 small cell lung, 41.2 µM; in the assay with M19-MEL melanoma it was over 100 µM; in the assay with SNB-78 CNS, 41.4 µM.

In the case of `Cc1coc2c1C(=O)C(=O)c1ccccc1-2`, the TGI in the assay with DMS 273 small cell lung was 3.33 µM; in the assay with LXFL 529 NSCLC it was 1.41 µM; in the assay on DMS 114 small cell lung it was 0.326 µM; with DLD-1 colon, 4.26 µM; in the assay with SNB-78 CNS it was 3.13 µM.

`CCCCC(C)/C=C/C(=O)C1=C(O)/C(=C/C(=O)O)OC1=O` (stereo not drawn): the TGI in the assay on DMS 273 small cell lung, in the assay with XF 498 CNS, in the assay on LXFL 529 NSCLC, in the assay on DMS 114 small cell lung and in the assay with SNB-78 CNS was over 100 µM each time.

On to `CCOC(=O)C(=O)Nc1cc(Cl)c(Cl)cc1Cl`, for which the TGI with DMS 273 small cell lung, with LXFL 529 NSCLC, in the assay on DMS 114 small cell lung, in the assay with M19-MEL melanoma and in the assay with SNB-78 CNS was over 100 µM throughout.

As for `O=C(NCCc1ccccc1)Nc1ccc2cc3ccc(NC(=O)NCCc4ccccc4)cc3nc2c1`, the GI50 was 0.813 µM in the assay on MDA-MB-435, 1.24 µM in the assay on DU-145 prostate, 1.64 µM with BT-549 breast and 1.35 µM with MDA-MB-231 breast. In addition, the TGI in the assay on MDA-MB-435 turned out to be 2.13 µM; in the assay with DU-145 prostate, 2.76 µM; with BT-549 breast, 3.37 µM; in the assay on MDA-MB-231 breast it was 2.75 µM.

For the compound `O=c1c2cc(Br)cc(Br)c2nc(CCCl)n1-c1ccc(O)c([N+](=O)[O-])c1`, the TGI in the assay on DMS 273 small cell lung was 36.9 µM; with LXFL 529 NSCLC it was 30.3 µM; in the assay with DMS 114 small cell lung, 36.3 µM; with DLD-1 colon it was 36.6 µM; in the assay on M19-MEL melanoma, 29.8 µM; in the assay on SNB-78 CNS, 62.3 µM.

Consider `N#Cc1c(-c2ccccc2)cc(-c2ccc(N)cc2)[nH]c1=O`, for which the TGI in the assay on DMS 273 small cell lung, in the assay on LXFL 529 NSCLC, in the assay with DMS 114 small cell lung, with DLD-1 colon, in the assay with M19-MEL melanoma and in the assay on SNB-78 CNS was over 100 µM throughout.

`N#Cc1ccc(-c2c(-c3ncn[nH]3)sc(N3CCOCC3)c2C#N)c(F)c1`: the GI50 was 0.995 µM in the assay with MDA-MB-435, 1.66 µM in the assay on DU-145 prostate, 3.84 µM in the assay on BT-549 breast and 3.28 µM in the assay on MDA-MB-231 breast. Further, the TGI in the assay with MDA-MB-435 was 17 µM; in the assay with DU-145 prostate it was over 100 µM; in the assay with BT-549 breast, 39.2 µM; with MDA-MB-231 breast, 25.7 µM.

As to `CCCOc1cc2ccccc2cc1C(=O)Nc1nc(NC)c2c(ccc3nccc32)[nH]1`, the GI50 in the assay with MDA-MB-435 is 0.0401 µM; in the assay on DU-145 prostate it was 0.345 µM; with BT-549 breast, 1.45 µM; in the assay with MDA-MB-231 breast, 1.34 µM. For the same compound, the TGI worked out at 0.197 µM with MDA-MB-435, 1.23 µM in the assay with DU-145 prostate, 3.02 µM in the assay on BT-549 breast and 2.87 µM in the assay with MDA-MB-231 breast.

Regarding `Nc1ccccc1C#C/C=C\C#CC#C/C=C\C#Cc1ccccc1N`, the GI50 with MDA-MB-435 is 2.85 µM; in the assay on DU-145 prostate, 2.97 µM; with BT-549 breast it was 5.03 µM; in the assay on MDA-MB-231 breast it was 1.54 µM. The TGI with MDA-MB-435 came to 9.72 µM; in the assay with DU-145 prostate it was 13.5 µM; in the assay on BT-549 breast, 25.9 µM; in the assay with MDA-MB-231 breast, 14.8 µM.

Take `NCCCOc1cc2ccccc2cc1C(=O)Nc1ccc(Cl)cc1OC(=O)c1cc2ccccc2cc1OCCCN`: the GI50 in the assay on MDA-MB-435 is 0.961 µM; in the assay on DU-145 prostate it was 0.303 µM; in the assay on BT-549 breast, 1.66 µM; in the assay on MDA-MB-231 breast, 0.596 µM. The TGI in the assay with MDA-MB-435 came out at 3.96 µM; in the assay with DU-145 prostate it was 0.781 µM; with BT-549 breast, 3.1 µM; in the assay with MDA-MB-231 breast, 1.99 µM.

In the case of `O=C(CSCC(=O)N/N=C/c1ccccc1O)N/N=C\c1ccccc1O`, the GI50 with MDA-MB-435 was 3.44 µM; in the assay with DU-145 prostate, 1.92 µM; with BT-549 breast, 1.73 µM; in the assay with MDA-MB-231 breast, 4.16 µM. Moreover, the TGI was over 100 µM in the assay with MDA-MB-435, over 100 µM in the assay on DU-145 prostate, 56.3 µM with BT-549 breast and over 100 µM with MDA-MB-231 breast.

`Cc1ccc(Nc2cc(Cl)c([N+](=O)[O-])cc2[N+](=O)[O-])cc1`: the GI50 is 3.07 µM in the assay with MDA-MB-435, 2.95 µM in the assay with DU-145 prostate, 3.72 µM in the assay on BT-549 breast and 4.42 µM in the assay on MDA-MB-231 breast. The TGI with MDA-MB-435 is 10.8 µM; with DU-145 prostate, 7.55 µM; in the assay with BT-549 breast it was 11.8 µM; in the assay on MDA-MB-231 breast, 15.8 µM.

For `COC(=O)c1cccc2c3ccccc3c3ccccc3c12`, the TGI with DMS 273 small cell lung was over 100 µM; in the assay on LXFL 529 NSCLC, 85.2 µM; with DMS 114 small cell lung it was 94.7 µM; with DLD-1 colon, over 100 µM; in the assay with M19-MEL melanoma, over 100 µM.

Turning to `C/C=C/C/C=C/[C@H](C)C[C@H](O)[C@@H]1C[C@@H]2O[C@H]2/C=C/[C@@H]2OC(C)(C)O[C@H]2/C=C/C[C@H](C)CC(=O)O1`, the GI50 is 24 µM with MDA-MB-435, 12.3 µM in the assay with DU-145 prostate, 16.3 µM in the assay with BT-549 breast and 36.1 µM in the assay on MDA-MB-231 breast. Also, the TGI in the assay on MDA-MB-435, with DU-145 prostate, with BT-549 breast and with MDA-MB-231 breast was over 100 µM each time.

Take `C=C1c2ccccc2C(=O)c2c1c1c(C(=O)OC)c(OC(=O)OCc3ccc([N+](=O)[O-])cc3)ccc1n2Cc1ccccc1`: the GI50 in the assay with MDA-MB-435 was 23.5 µM; in the assay with DU-145 prostate, 3.62 µM; in the assay with BT-549 breast it was 3.21 µM; in the assay on MDA-MB-231 breast, 18.3 µM. Further, the TGI is over 100 µM with MDA-MB-435, 33.5 µM in the assay on DU-145 prostate, 9.48 µM in the assay with BT-549 breast and 65.6 µM in the assay with MDA-MB-231 breast.

`Cc1cc(N(CCC#N)CCC#N)ccc1N=Nc1cc(Cl)ccc1Cl`: the TGI in the assay with DMS 273 small cell lung was 29.6 µM; with LXFL 529 NSCLC it was 3.35 µM; in the assay with DMS 114 small cell lung, 22.9 µM; in the assay on DLD-1 colon, 26.1 µM; with M19-MEL melanoma, 26.6 µM; in the assay with SNB-78 CNS it was 22 µM.

With `O=C1/C(=C/c2ccc3c(c2)OCCO3)CCC/C1=C\c1ccc2c(c1)OCCO2`, the TGI with DMS 273 small cell lung is 43.9 µM; with LXFL 529 NSCLC, over 100 µM; with DLD-1 colon it was 48.4 µM; in the assay on M19-MEL melanoma, 81.9 µM; with SNB-78 CNS, over 100 µM.

Regarding `Cc1cc(C(=O)Nc2n[nH]c3ccccc23)n[nH]1`, the GI50 in the assay on MDA-MB-435, with DU-145 prostate, with BT-549 breast and in the assay on MDA-MB-231 breast was over 100 µM in each case. Besides, the TGI in the assay with MDA-MB-435, in the assay on DU-145 prostate, in the assay on BT-549 breast and in the assay on MDA-MB-231 breast was over 100 µM in each case.

`O=C(O)c1cc2ccccc2c2c3c(ccc12)OCO3`: the GI50 was 172 µM in the assay with MDA-MB-435, 303 µM in the assay with DU-145 prostate, 119 µM in the assay with BT-549 breast and 165 µM in the assay with MDA-MB-231 breast. Moreover, the TGI with MDA-MB-435 was 519 µM; in the assay on DU-145 prostate, over 1000 µM; in the assay on BT-549 breast it was 390 µM; in the assay with MDA-MB-231 breast, over 1000 µM.

`COCCOCCOCc1n(Cc2ccc3ccccc3c2)c2ccccc2[n+]1Cc1ccc2ccccc2c1`: the GI50 with MDA-MB-435 is 0.282 µM; in the assay with DU-145 prostate, 0.766 µM; with BT-549 breast, 0.366 µM; in the assay with MDA-MB-231 breast, 0.38 µM. In addition, the TGI came out at 1.23 µM in the assay on MDA-MB-435, 2.14 µM in the assay on DU-145 prostate, 1.53 µM with BT-549 breast and 1.64 µM with MDA-MB-231 breast.

As for `CCOC(=O)C(Cc1c[nH]c2cc(N(CCO)CCO)ccc12)(NC(C)=O)C(=O)OCC`, the GI50 with MDA-MB-435 is 34.6 µM and 50.1 µM; in the assay on DU-145 prostate it was 391 µM; in the assay with BT-549 breast, 69.3 µM and 459 µM; with MDA-MB-231 breast it was 960 µM. Also, the TGI was 200 µM with MDA-MB-435, over 1000 µM in the assay on DU-145 prostate, over 1000 µM in the assay with BT-549 breast and over 1000 µM in the assay on MDA-MB-231 breast.

For `O=C(Nc1cccc(-n2cc(-c3ccncc3)c(-c3ccc(O)c(Cl)c3)n2)c1)c1ccc2c(c1)OCCO2`, the GI50 was over 100 µM with MDA-MB-435, over 100 µM with DU-145 prostate, 4.92 µM in the assay on BT-549 breast and 2.92 µM with MDA-MB-231 breast. Further, the TGI in the assay on MDA-MB-435, in the assay on DU-145 prostate, in the assay with BT-549 breast and in the assay with MDA-MB-231 breast was over 100 µM in each case.

As to `CCOC(=O)Nc1nc2ccccc2[nH]1`, the GI50 in the assay with MDA-MB-435 is 1.28 µM and 0.674 µM; with DU-145 prostate it was 8.58 µM and 4.18 µM; with BT-549 breast, 6.03 µM; in the assay on MDA-MB-231 breast, 12.9 µM and 19.3 µM. In addition, the TGI in the assay on MDA-MB-435 was 4 µM; with DU-145 prostate it was over 100 µM; in the assay with BT-549 breast, over 100 µM; with MDA-MB-231 breast, over 100 µM.

As to `CNCC/C=C1\c2cc3c(cc2-c2c1c1cc(OC)c(OC)cc1c(=O)n2C)OCO3`, the GI50 in the assay on MDA-MB-435 was 0.836 µM; in the assay with DU-145 prostate, 0.428 µM; with BT-549 breast, 3.66 µM; in the assay on MDA-MB-231 breast it was 1.78 µM. Also, the TGI in the assay on MDA-MB-435 worked out at 15 µM; with DU-145 prostate it was 8.84 µM; with BT-549 breast, 22.5 µM; in the assay on MDA-MB-231 breast, 13.6 µM.

For the compound `N#CC1=C(N)NC(=S)NC1c1ccc(-c2ccc(-c3nc4ccccc4o3)cc2)s1` (stereo not drawn), the GI50 is 16.5 µM in the assay on MDA-MB-435, 17.6 µM with DU-145 prostate, 17.5 µM in the assay on BT-549 breast and 7.16 µM in the assay on MDA-MB-231 breast. For the same compound, the TGI is 48.5 µM in the assay with MDA-MB-435, over 50 µM with DU-145 prostate, 47.6 µM in the assay on BT-549 breast and 16.4 µM in the assay with MDA-MB-231 breast.
